# Values quoted from earlier work, collected in patent US6245768A, “1-(N'-(arylalkylaminoalkyl)) aminoisoindoles; a new class of dopamine receptor subtype specific ligands” (Neurogen Corporation, priority 1999, dated 2001).
# Read-outs that look alike come from different tables or passages of the source.
# Legend:
# D2 receptors = settings: related art
# D1 dopamine receptor = settings: related art
structure (smiles),measurement,setting,value
CN1CCN(C2=Nc3cc(Cl)ccc3Nc3ccccc32)CC1 [clozapine],incidence of extrapyramidal side effects (EPS),"compared with classical neuroleptics, related art",lesser incidence of extrapyramidal side effects (EPS) than classical neuroleptics
CCN1CCCC1CNC(=O)c1cc(S(N)(=O)=O)ccc1OC (stereo not shown) [sulpiride],incidence of extrapyramidal side effects (EPS),in vivo,lesser incidence of extrapyramidal side effects (EPS) than classical neuroleptics
O=C(CCCN1CCC(O)(c2ccc(Cl)cc2)CC1)c1ccc(F)cc1 [haloperidol],binding affinity at D2 receptors,D2 receptors,subnanomolar range
same,binding at the D1 dopamine receptor,D1 dopamine receptor,binds relatively weakly
